Reference: PubChem BioAssay AID330 (DTP/NCI, 2004)
Where “and” joins values, the source holds several entries; their conditions need not be identical. Equal values may be shown once. Toxic doses and inconclusive results are not listed. The calls were made as follows: active = survival T/C of 150% or more; inactive = T/C below 125% in these data.

Test system: P388 leukemia ip, CD2F1 mice, survival T/C
Test: NCI In Vivo Anticancer Drug Screen. Data for tumor model P388 Leukemia (intraperitoneal) in CD2F1 (CDF1) mice
Settings: endpoint: median survival time, higher = longer survival
In short: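 Mice carrying the transplanted tumor received test compound or vehicle. Survival was recorded in each group, and the value is the treated-group measurement divided by that of the vehicle-treated control group.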

[1] = dose: 100.0 mg/kg/injection, schedule: Q04DX003 (ip), vehicle: saline with Tween-80
[2] = dose: 50.0 mg/kg/injection, schedule: Q01DX005 (ip), vehicle: Klucel (hydroxypropylcellulose) (HPC)
[3] = dose: 12.5 mg/kg/injection, schedule: Q01DX009 (ip), vehicle: Klucel (hydroxypropylcellulose) (HPC)
[4] = dose: 50.0 mg/kg/injection, schedule: Q01DX009 (ip), vehicle: Klucel (hydroxypropylcellulose) (HPC)
[5] = dose: 100.0 mg/kg/injection, schedule: Q01DX009 (ip), vehicle: Klucel (hydroxypropylcellulose) (HPC)
[6] = dose: 6.25 mg/kg/injection, schedule: Q01DX009 (ip), vehicle: saline with Tween-80
[7] = dose: 12.5 mg/kg/injection, schedule: Q01DX009 (ip), vehicle: saline with Tween-80
[8] = dose: 25.0 mg/kg/injection, schedule: Q01DX009 (ip), vehicle: saline with Tween-80
[9] = dose: 50.0 mg/kg/injection, schedule: Q01DX009 (ip), vehicle: saline with Tween-80
[10] = dose: 100.0 mg/kg/injection, schedule: Q01DX009 (ip), vehicle: saline with Tween-80
[11] = dose: 50.0 mg/kg/injection, schedule: Q01DX005 (ip), vehicle: saline with Tween-80
[12] = dose: 100.0 mg/kg/injection, schedule: Q01DX005 (ip), vehicle: saline with Tween-80
[13] = dose: 200.0 mg/kg/injection, schedule: Q01DX005 (ip), vehicle: saline with Tween-80

Measured: T/C

CCSc1nc(Cl)cc(Sc2nc(N)nc3nc[nH]c23)n1
inactive: dose: 12.0 mg/kg/injection, schedule: Q01DX009 (ip), vehicle: saline with Tween-80 90 % of control | dose: 18.0 mg/kg/injection, schedule: Q01DX009 (ip), vehicle: saline with Tween-80 90 % of control | dose: 26.0 mg/kg/injection, schedule: Q01DX009 (ip), vehicle: saline with Tween-80 100 % of control | dose: 40.0 mg/kg/injection, schedule: Q01DX009 (ip), vehicle: saline with Tween-80 104 % of control | dose: 60.0 mg/kg/injection, schedule: Q01DX009 (ip), vehicle: saline with Tween-80 100 % of control | dose: 88.0 mg/kg/injection, schedule: Q01DX009 (ip), vehicle: saline with Tween-80 90 % of control | dose: 132.0 mg/kg/injection, schedule: Q01DX009 (ip), vehicle: saline with Tween-80 86 % of control

CC(C)(C)COSc1ccccc1
inactive: [1] 106 % of control

O=C(O)CCNC(Cc1ccc(O)cc1)C(=O)O (stereo unspecified)
inactive: [2] 96 % of control | dose: 100.0 mg/kg/injection, schedule: Q01DX005 (ip), vehicle: Klucel (hydroxypropylcellulose) (HPC) 102 % of control | dose: 200.0 mg/kg/injection, schedule: Q01DX005 (ip), vehicle: Klucel (hydroxypropylcellulose) (HPC) 103 % of control

[C-]#[N+]C1CCCCC1.[C-]#[N+]C1CCCCC1.[Ni].[S-]c1ccccc1.[S-]c1ccccc1
inactive: dose: 25.0 mg/kg/injection, schedule: Q04DX003 (ip), vehicle: saline with Tween-80 89 % of control | dose: 50.0 mg/kg/injection, schedule: Q04DX003 (ip), vehicle: saline with Tween-80 91 % of control | [1] 89 % of control and 93 % of control

Cc1cc(C)n(C2=NS(=O)(=O)c3ccccc3N2C)n1
inactive: dose: 60.0 mg/kg/injection, schedule: Q01DX005 (ip), vehicle: saline with Tween-80 93 % of control | dose: 120.0 mg/kg/injection, schedule: Q01DX005 (ip), vehicle: saline with Tween-80 101 % of control | dose: 240.0 mg/kg/injection, schedule: Q01DX005 (ip), vehicle: saline with Tween-80 99 % of control

Cc1nc2ccccc2[n]1[Sn]([CH3])([CH3])[n]1c(C)nc2ccccc21
inactive: dose: 12.5 mg/kg/injection, schedule: Q01DX005 (ip), vehicle: Klucel (hydroxypropylcellulose) (HPC) 118 % of control | dose: 25.0 mg/kg/injection, schedule: Q01DX005 (ip), vehicle: Klucel (hydroxypropylcellulose) (HPC) 118 % of control | [2] 112 % of control and 118 % of control

CN(C)CCCNc1ccc2ccc3c(NCCCN(C)C)ccc4ccc1c2c43
inactive: [3] 99 % of control | dose: 25.0 mg/kg/injection, schedule: Q01DX009 (ip), vehicle: Klucel (hydroxypropylcellulose) (HPC) 102 % of control | [4] 99 % of control and 112 % of control | [5] 103 % of control

Cn1c(Cl)c(/C=N\Nc2cccc([N+](=O)[O-])c2)c2ccccc21
inactive: dose: 50.0 mg/kg/injection, schedule: Q01DX001 (ip), vehicle: Klucel (hydroxypropylcellulose) (HPC) 92 % of control | dose: 100.0 mg/kg/injection, schedule: Q01DX001 (ip), vehicle: Klucel (hydroxypropylcellulose) (HPC) 90 % of control | dose: 200.0 mg/kg/injection, schedule: Q01DX001 (ip), vehicle: Klucel (hydroxypropylcellulose) (HPC) 92 % of control

Cn1c(-c2ccccc2)c2c(c1-c1ccccc1)C(=O)c1c(c(-c3ccccc3)n(C)c1-c1ccccc1)C2=O
inactive: [4] 94 % of control | [5] 92 % of control | dose: 200.0 mg/kg/injection, schedule: Q01DX009 (ip), vehicle: Klucel (hydroxypropylcellulose) (HPC) 97 % of control

C=CC(=NC(C)(C)C)Nc1c(Cl)cccc1Cl
inactive: dose: 0.79 mg/kg/injection, schedule: Q01DX009 (ip), vehicle: saline 100 % of control | dose: 1.56 mg/kg/injection, schedule: Q01DX009 (ip), vehicle: saline 96 % of control | dose: 3.12 mg/kg/injection, schedule: Q01DX009 (ip), vehicle: saline 108 % of control | [6] 114 % of control | [7] 119 % of control | dose: 12.5 mg/kg/injection, schedule: Q01DX009 (ip), vehicle: saline 109 % of control | dose: 25.0 mg/kg/injection, schedule: Q01DX009 (ip), vehicle: saline 116 % of control

COc1ccc2nc3cc(Cl)ccc3c(NN3CCN(CCO)CC3)c2c1
inactive: dose: 0.19 mg/kg/injection, schedule: Q01DX009 (ip), vehicle: DMSO 86 % of control | dose: 0.38 mg/kg/injection, schedule: Q01DX009 (ip), vehicle: DMSO 98 % of control and 89 % of control | dose: 0.75 mg/kg/injection, schedule: Q01DX009 (ip), vehicle: DMSO 98 % of control | dose: 1.5 mg/kg/injection, schedule: Q01DX009 (ip), vehicle: DMSO 107 % of control and 95 % of control | dose: 23.0 micrograms/kg/injection, schedule: Q01DX009 (ip), vehicle: DMSO 87 % of control | dose: 47.0 micrograms/kg/injection, schedule: Q01DX009 (ip), vehicle: DMSO 91 % of control | dose: 94.0 micrograms/kg/injection, schedule: Q01DX009 (ip), vehicle: DMSO 89 % of control

COC(CCC1N=C1c1ccccc1)OC (stereo unspecified)
inactive: dose: 100.0 mg/kg/injection, schedule: Q04DX002 (ip), vehicle: saline with Tween-80 105 % of control | dose: 200.0 mg/kg/injection, schedule: Q04DX002 (ip), vehicle: saline with Tween-80 102 % of control | dose: 400.0 mg/kg/injection, schedule: Q04DX002 (ip), vehicle: saline with Tween-80 102 % of control

C(=C\c1cccnc1)/c1ccncc1
inactive: [8] 95 % of control | [9] 104 % of control | [10] 109 % of control

CC(C)NCC(O)COc1ccccc1C1CCCCC1 (stereo unspecified)
inactive: dose: 6.25 mg/kg/injection, schedule: Q01DX009 (ip), vehicle: Klucel (hydroxypropylcellulose) (HPC) 103 % of control | [6] 102 % of control | [3] 106 % of control | [7] 123 % of control and 94 % of control | [8] 102 % of control and 113 % of control | [4] 104 % of control | [9] 99 % of control and 118 % of control and 96 % of control | [5] 98 % of control

Nc1nc2c(c(-c3nc(N)nc4c3CCc3ccccc3-4)n1)CCc1ccccc1-2
inactive: dose: 60.0 mg/kg/injection, schedule: Q01DX005 (ip), vehicle: saline 105 % of control | dose: 120.0 mg/kg/injection, schedule: Q01DX005 (ip), vehicle: saline 99 % of control | dose: 240.0 mg/kg/injection, schedule: Q01DX005 (ip), vehicle: saline 107 % of control

C[Si](C)(C)SCCS[Si](C)(C)C
inactive: [11] 98 % of control | [12] 98 % of control | [13] 95 % of control

Cc1ccc2c(c1)N=C(OCCCN(C)C)/C(=C/c1ccccc1)O2
inactive: dose: 50.0 mg/kg/injection, schedule: Q04DX002 (ip), vehicle: Klucel (hydroxypropylcellulose) (HPC) 105 % of control | dose: 100.0 mg/kg/injection, schedule: Q04DX002 (ip), vehicle: Klucel (hydroxypropylcellulose) (HPC) 99 % of control | dose: 200.0 mg/kg/injection, schedule: Q04DX002 (ip), vehicle: Klucel (hydroxypropylcellulose) (HPC) 101 % of control

CC(=NC(C)C)Nc1ccc(Cl)cc1
inactive: [8] 107 % of control | [9] 105 % of control | [10] 92 % of control

Nc1ccn(CC(=O)c2ccc(Cl)s2)c(=O)n1
inactive: dose: 100.0 mg/kg/injection, schedule: Q04DX003 (ip), vehicle: water 100 % of control | dose: 200.0 mg/kg/injection, schedule: Q04DX003 (ip), vehicle: water 100 % of control | dose: 400.0 mg/kg/injection, schedule: Q04DX003 (ip), vehicle: water 104 % of control

C[CH2][Ge]([CH2]C)[CH2]C.C[CH2][Ge]([Cl])[CH2]C.C[CH2][Ge][CH2]C
inactive: dose: 50.0 mg/kg/injection, schedule: Q01DX009 (ip), vehicle: saline 104 % of control | dose: 100.0 mg/kg/injection, schedule: Q01DX009 (ip), vehicle: saline 103 % of control | dose: 200.0 mg/kg/injection, schedule: Q01DX009 (ip), vehicle: saline 103 % of control

CC1CC(C)C(C)C(CNCC2CC(C)CC(C)C2C)C1 (stereo unspecified)
inactive: dose: 12.5 mg/kg/injection, schedule: Q01DX005 (ip), vehicle: saline with Tween-80 99 % of control | dose: 25.0 mg/kg/injection, schedule: Q01DX005 (ip), vehicle: saline with Tween-80 99 % of control | [11] 102 % of control and 97 % of control | [12] 102 % of control

O=C(CON1C(=O)CCC1=O)c1ccccc1
inactive: [9] 106 % of control | [10] 112 % of control | dose: 200.0 mg/kg/injection, schedule: Q01DX009 (ip), vehicle: saline with Tween-80 112 % of control

CC(NC(=O)C(C)Oc1ccc(Cl)cc1Cl)C(=O)O (stereo unspecified)
inactive: [11] 101 % of control | [12] 99 % of control | [13] 100 % of control
